Results on one molecule are retold here after publication PMC6150365, “Simultaneous Determination of Seven Components in Rat Plasma by the UPLC-MS/MS Method and Application of Pharmacokinetic Studies to SimiaoYong’an Decoction” (Molecules : A Journal of Synthetic Chemistry and Natural …, 2017).

A word on the AUC(0-t): it is the area under the concentration-time curve up to a stated or last time point. In general, AUC(0-inf) refers to the area under the concentration-time curve extrapolated to infinity. A high value points to high exposure. The Cmax is the maximum level reached in the sampled fluid or tissue. As a reminder, the MRT last is a mean duration of stay, worked out from the concentration-time curve. What is called MRT inf is the average time that molecules of a dose stay in the body. As usually defined, the Tmax is the time from dosing to the highest level. What is called half-life is the time needed for the level to fall by half in the phase considered. Lower therefore signals fast loss.

The series is described as follows: in vivo. As to conditions: male, Sprague-Dawley, rat, po; for MRT last: MRT(0–t); for MRT inf: MRT(0–∞); for half-life: t1/2.

For `C=C[C@H]1[C@H](O[C@@H]2O[C@H](CO)[C@@H](O)[C@H](O)[C@H]2O)OC=C2C(=O)OCC[C@H]21` [Sweroside, sweroside], where the note is “2.15 g/kg”, the AUC(0-t) is 6900 ± 2660 ng·h/mL, the AUC(0-inf) amounted to 7860 ± 4080 ng·h/mL, the Cmax worked out at 2920 ± 1770 ng/mL and the MRT last turned out to be 4.46 ± 1.2 h. For the same molecule, under “2.15 g/kg”, the MRT inf was 7.5 ± 5.21 h, the Tmax worked out at 0.96 ± 0.58 h and the half-life was 443 ± 380 min. Further, under “8.25 g/kg”, the AUC(0-t) came to 4490 ± 280 ng·h/mL, the AUC(0-inf) is 4530 ± 290 ng·h/mL, the Cmax was determined as 1970 ± 700 ng/mL and the MRT last came to 3.3 ± 0.39 h. For the setting “8.25 g/kg”, the MRT inf was found to be 3.53 ± 0.29 h, the Tmax was found to be 1.33 ± 0.49 h and the half-life is 248 ± 87.6 min.
